We go through two compounds from patent publication US20250161278A1, “CBL-B INHIBITOR, COMPOSITIONS COMPRISING A CBL-B INHIBITOR IN A METHOD OF TREATING A DISEASE ASSOCIATED WITH CELL PROLIFERATION” (HOTSPOT THERAPEUTICS, INC., priority 2022, published 2025).

Data set [1] relates to CT26 tumor cells. The data set can be described thus: Subcutaneous CT26 murine colorectal cancer model (Example 5), tumor growth inhibition. The class given is in vivo, mouse. As to conditions: CT26 s.c., female BALB/c mice. Here is the method: (§1) The objective of this study was to evaluate the in vivo anti-tumor efficacy of Compound 85 in the subcutaneous CT26 murine colorectal cancer model in female BALB/c mice. Compound 85 test particle was delivered via PO when tumors reached 80 mm^3. The compound was assessed at six different dose levels (3 mpk, l0 mpk, 30 mpk for BID and 6 mpk, 20 mpk and 60 mpk for QD). Tumor volumes and body weight were measured twice per week after the initiation of treatment. Compound 85 level was assessed in the plasma and tumor at the end of the study.
The CT26 tumor cells were maintained in vitro with RPMI-1640 medium supplemented with 10% fetal bovine serum at 37° C. in an atmosphere of 5% CO2. The cells in exponential growth phase were harvested and quantitated by cell counter before tumor inoculation.
Each mouse was inoculated subcutaneously in the right lower flank region with CT26 tumor cells (5×10^5) in 0.1 ml of PBS.
The randomization started when the mean tumor size reaches approximately 80.7 mm^3. In total, 80 mice were enrolled in the study and randomly allocated into 8 study groups, with 10 mice per group. Randomization was performed based on the “Matched distribution” method (Study Director™ software, version 3.1.399.19). The date of randomization was denoted as day 0.
(§2) After tumor inoculation, the animals were checked daily for morbidity and mortality. During routine monitoring, the animals were checked for any effects of tumor growth and treatments on behavior such as mobility, food and water consumption, body weight gain/loss (Body weights would be measured twice per week after randomization), eye/hair matting and any other abnormalities. Mortality and observed clinical signs were recorded for individual animals in detail.
(§3) Tumor volumes were measured twice per week after randomization in two dimensions using a caliper, and the volume was expressed in mm3 using the formula: V=(L×W×W)/2, where V is tumor volume, L is tumor length (the longest tumor dimension) and W is tumor width (the longest tumor dimension perpendicular to L). Dosing as well as tumor and body weight measurements were conducted in a Laminar Flow Cabinet.

A further data set has as its system H22 tumor cells. The data set can be described thus: Subcutaneous H22 murine liver cancer model, tumor growth inhibition. Type of data set: in vivo, mouse. As to conditions: for TGI (%): H22 s.c., female BALB/c mice. The procedure:
The objective of this pharmacology study was to evaluate the anti-tumor growth efficacy of Compound 85 in the treatment of the subcutaneous H22 murine liver cancer model in female BALB/c mice. Compound 85 test particles were delivered via PO when the average tumor volume reached approximately 80 mm^3. […] Tumor volumes and body weight were measured three times per week after the initiation of treatment.
The H22 tumor cells were maintained in vitro with RPMI-1640 medium supplemented with 10% fetal bovine serum at 37° C. in an atmosphere of 5% CO2. Cells in the exponential growth phase were harvested and quantified by cell counter before tumor inoculation.
Each mouse was inoculated subcutaneously in the right front flank region with H22 tumor cells (1×10e6) in 0.1 ml of PBS for tumor development.
The randomization started when the mean tumor size reaches approximately 79.89 mm^A3. […] Randomization was performed based on “Matched distribution” method/“Stratified” method (Study Director™ software, version 3.1.399.19)/randomized block design. The date of randomization was denoted as day 0.
After tumor inoculation, the animals were checked daily for morbidity and mortality. During routine monitoring, the animals were checked for any effects of tumor growth and treatments on behavior such as mobility, food and water consumption, body weight gain/loss (Body weights were measured thrice per week after randomization), eye/hair matting and any other abnormalities. Mortality and observed clinical signs were recorded for individual animals in detail.
Tumor volumes were measured three times per week after randomization in two dimensions using a caliper, and the volume was expressed in mm3 using the formula: V=(L×W×W)/2, where V is tumor volume, L is tumor length (the longest tumor dimension) and W is tumor width (the longest tumor dimension perpendicular to L). Dosing, as well as tumor and body weight measurements, were conducted in a Laminar Flow Cabinet.
Tumor growth inhibition (TGI): TGI % is an indication of antitumor activity, expressed as: TGI (%)=100×(1−T/C). T and C are the mean tumor volume (or weight) of the treated and control groups on a given day.
The treatment was performed for 21 days and the study was terminated on day 20 post dosing initiation.

Data set [2] has as its system CT26 tumor cells. The data set is described as follows: Subcutaneous CT26 murine colorectal cancer model (Example 6), tumor growth inhibition. Type of data set: in vivo, mouse. As to conditions: day 13, CT26 s.c., female BALB/c mice. Here is the method:
The objective of this study was to evaluate preclinically the in vivo dose of test compounds in the treatment of the subcutaneous CT26 murine colorectal cancer model in female BALB/c mice.
The CT26 tumor cells were maintained in vitro with RPMI-1640 medium supplemented with 10% fetal bovine serum at 37° C. in an atmosphere of 5% CO2 in air. The cells in exponential growth phase was harvested and quantitated by cell counter before tumor inoculation.
Each mouse was inoculated subcutaneously in the right lower flank region with CT26 tumor cells (5×10^5) in 0.1 ml of PBS for tumor development.
The randomization started when the mean tumor size reaches approximately 89.91 mm^3. Totally 80 mice were enrolled in the study and randomly allocated to 8 study groups, with 10 mice per group. Randomization was performed based on “Matched distribution” method (Study Director™ software, version 3.1.399.19). The date of randomization was denoted as day 0 (Jul. 8, 2021).
as §2, §3
Tumor growth inhibition (TGI): TGI % is an indication of antitumor activity, and expressed as: TGI (%)=100×(1−T/C). T and C are the mean tumor volume (or weight) of the treated and control groups, respectively, on a given day.
The treatment was performed for 14 days. There was no extension of the treatment, the study was terminated on Day 13 post dosing initiation.
To compare tumor volumes of different groups at a pre-specified day, Bartlett's test was used to check the assumption of homogeneity of variance across all groups. When the p-value of Bartlett's test was >=0.05, we ran one-way ANOVA to test overall equality of means across all groups. If the p-value of the one-way ANOVA was <0.05, post hoc testing was performed by running Tukey's HSD (honest significant difference) tests for all pairwise comparisons, and Dunnett's tests for comparing each treatment group with the vehicle group. […]

Data set [3] can be described thus: Body weight and mortality monitoring in CT26 model (Example 5). Type of data set: in vivo. Here is the method: as §1, §2
The body weights and tumor volumes were measured by using Study Director™ software (version 3.1.399.19).

Consider `C[C@H]1CCCN(Cc2cc(C(F)(F)F)c3cn(-c4cccc(C5(Cc6nncn6C)COC5)c4)c(=O)n3c2)C1` [Compound 29], for which the “TGI(%) on Day 18” value in the data set on CT26 tumor cells [1] (30 mpk BID p.o.) turned out to be 17.3%. Further, the “TGI (%)” value in the data set with H22 tumor cells (60 mpk BID p.o.) was found to be 63.97%; in the data set with CT26 tumor cells [2] (30 mg/kg BID p.o.) it was 10.78%; with CT26 tumor cells [2] (60 mg/kg BID p.o.) it was 41.76%; with CT26 tumor cells [2] (100 mg/kg BID p.o.) it was 50.83%.
For `C[C@H]1CCCN(Cc2cc(C(F)(F)F)c3cn(-c4cncc([C@H](c5nncn5C)C5CCC5)c4)c(=O)n3c2)C1` [Compound 85], the “TGI(%) on Day 18” value was 18.7% in the data set with CT26 tumor cells [1] (3 mpk BID p.o.); 3.8% with CT26 tumor cells [1] (6 mpk QD p.o.); 24.4% in the data set with CT26 tumor cells [1] (10 mpk BID p.o.); 22.2% in the data set with CT26 tumor cells [1] (20 mpk QD p.o.); 37.9% with CT26 tumor cells [1] (30 mpk BID p.o.); 33.9% in the data set with CT26 tumor cells [1] (60 mpk QD p.o.). Besides, the “TGI (%)” value in the data set with H22 tumor cells (2 mpk QD p.o.) was 19.56%; in the data set with H22 tumor cells (10 mpk QD p.o.), 41.21%; with H22 tumor cells (20 mpk QD p.o.) it was 68.54%; with H22 tumor cells (40 mpk QD p.o.), 64.65%; in the data set with CT26 tumor cells [2] (30 mg/kg BID p.o.), 43.02%. Moreover, the “minimal efficacious dose (lowest dose showing significant tumor inhibition)” value in the data set on H22 tumor cells (QD p.o., single agent) is 6 mpk. In the data set on H22 tumor cells (high doses, 20 mpk or 40 mpk QD), the “maximum TGI” value is listed as around 65%. The “loss of average body weight” value in data set [3] (day 3, 30 mpk BID p.o.) is recorded as “less than 5%”; in data set [3] (day 3, 60 mpk QD p.o.) it was “less than 5%”. Also, the mortality entry in data set [3] (mouse, in vivo) was “No mortality was reported”.
